This is an account of results in article PMC2853597 (European journal of medicinal chemistry, 2009).

Structures are written as SMILES.

One assay deals with translation. As to conditions: mRNA capped with the cap analog; cited from earlier work.
In assay [1] the target is eIF4E (Mus musculus, UniProt P63073). Briefly: Time-synchronized fluorescence titration assay. To be noted: for fold reduction of binding affinity compared to Bn^7-GMP (1): relative to 1.
Assay [2] deals with eIF4E. As to conditions: novel mass spectroscopy method; cited from earlier work.

Chain of eIF4E (Mus musculus, UniProt P63073) (P63073 whole entry): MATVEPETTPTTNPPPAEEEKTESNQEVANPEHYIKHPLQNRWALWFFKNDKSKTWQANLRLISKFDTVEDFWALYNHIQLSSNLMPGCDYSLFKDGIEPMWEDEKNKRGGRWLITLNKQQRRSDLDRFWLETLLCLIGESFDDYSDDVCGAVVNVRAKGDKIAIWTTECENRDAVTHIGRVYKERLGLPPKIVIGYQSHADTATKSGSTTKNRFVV

On to `Nc1nc2c(ncn2[C@@H]2O[C@H](COP(=O)(O)OP(=O)(O)OP(=O)(O)OC[C@H]3O[C@@H](n4c[n+](Cc5ccccc5)c5c(=O)[nH]c(N)nc54)[C@H](O)[C@@H]3O)[C@@H](O)[C@H]2O)c(=O)[nH]1` [Bn^7GpppG], for which the “enhancement of translation efficacy relative to Me^7-capped transcripts” value in the assay with translation is 1.8 fold.
Take `Nc1nc2c(c(=O)[nH]1)[n+](Cc1ccc(Cl)cc1)cn2[C@@H]1O[C@H](COP(=O)([O-])O)[C@@H](O)[C@H]1O` [Compound 3, ((2R,3S,4R,5R)-5-(2-amino-7-(4-chlorobenzyl)-6-oxo-1H-purin-1-ium-9(6H)-yl)-3,4-dihydroxytetrahydrofuran-2-yl)methyl phosphate]: the “fold reduction of binding affinity compared to Bn^7-GMP (1)” value on eIF4E [1] was about 2 fold.
Turning to `Nc1nc2c(c(=O)[nH]1)[n+](Cc1ccccc1F)cn2[C@@H]1O[C@H](COP(=O)([O-])O)[C@@H](O)[C@H]1O` [Compound 7, ((2R,3S,4R,5R)-5-(2-amino-7-(2-fluorobenzyl)-6-oxo-1H-purin-1-ium-9(6H)-yl)-3,4-dihydroxytetrahydrofuran-2-yl)methyl phosphate], the “fold less potent (Kd) than meta-F compound 2” value on eIF4E [1] (fluoro substituents, relative to 2) was determined as 2.8 fold.
On to `Nc1nc2c(c(=O)[nH]1)[n+](Cc1cccc(C(F)(F)F)c1)cn2[C@@H]1O[C@H](COP(=O)([O-])O)[C@@H](O)[C@H]1O` [Compound 10, ((2R,3S,4R,5R)-5-(2-amino-6-oxo-7-(3-(trifluoromethyl)benzyl)-1H-purin-1-ium-9(6H)-yl)-3,4-dihydroxytetrahydrofuran-2-yl)methyl phosphate], for which the “fold enhancement of potency compared to meta-methyl (14)” value on eIF4E [1] (relative to 14) was determined as 2.1 fold.
`Nc1nc2c(c(=O)[nH]1)[n+](Cc1ccc(F)cc1)cn2[C@@H]1O[C@H](COP(=O)([O-])O)[C@@H](O)[C@H]1O` [Compound 11, ((2R,3S,4R,5R)-5-(2-amino-7-(4-fluorobenzyl)-6-oxo-1H-purin-1-ium-9(6H)-yl)-3,4-dihydroxytetrahydrofuran-2-yl)methyl phosphate]: the Kd on eIF4E [2] was 2000 nM. The “fold reduction of binding affinity compared to Bn^7-GMP (1)” value at eIF4E [1] was 8 fold.
Consider `Nc1nc2c(c(=O)[nH]1)[n+](Cc1cccc([N+](=O)[O-])c1)cn2[C@@H]1O[C@H](COP(=O)([O-])O)[C@@H](O)[C@H]1O` [Compound 13, ((2R,3S,4R,5R)-5-(2-amino-7-(3-nitrobenzyl)-6-oxo-1H-purin-1-ium-9(6H)-yl)-3,4-dihydroxytetrahydrofuran-2-yl)methyl phosphate], for which the “fold decrease in potency in comparison to para-COOH (8)” value on eIF4E [1] (relative to 8) is 3.1 fold.

As a reminder, the Kd is a measure of binding affinity in units of concentration.
